Results from patent US5804553A, “Prophenins - antibiotic peptides” (University of California, priority 1994, dated 1998).
Where no end group is shown, it is not given here.

B1: Prophenin-1: 79-residue proline-rich antimicrobial peptide purified from porcine leukocytes; sequence SEQ ID NO:1 (b87-b94, FIG. 3) (peptide)
chain: AFPPPNVPGPRFPPPNFPGPRFPPPNFPGPRFPPPNFPGPRFPPPNFPGPPFPPPIFPGPWFPPPPPFRPPPFGPPRFP

Assays:
[1] = test system: C. albicans, strain 820; test: radial diffusion assay in agarose gels; format: cell-based; conditions: for inhibitory activity (FIG. 4c): at reasonable concentrations; for minimal microbicidal concentration: Table 2
Procedure: (§1) Aliquots (66 μl) of each fraction were dried by vacuum centrifugation, and resuspended in approximately 6.6 μl of 0.01% acetic acid. Five μl samples of this concentrate were tested for antimicrobial activity against E. coli ML-35, L. monocytogenes, Strain EGD and C. albicans, strain 820 by radial diffusion and gel overlay techniques (Lehrer, R. I. et al. J Immunol Meth (1991) 137:167-173). Active fractions were further examined by acid-urea PAGE and SDS-PAGE. Prophenins emerged from the P10 column in fractions 38-43 (39.6 ml total volume), which contained a total of 18 mg protein by BCA analysis.
(§2) The radial diffusion assay in agarose gels as described above was also used to test the activity of the purified prophenins. Samples of 5 μL each were added to 3 mm wells in thin gels composed of 10 mM sodium phosphate, 30 mg/ml trypticase soy broth powder in 1% agarose and containing approximately 4×10^5 CFU/ml of mid-log phase organisms. After allowing 3 hours for the samples to diffuse into the underlayer gel, a nutrient-rich overlay gel was poured and the plates were incubated for 24 hours at 37° C. to allow surviving organisms to form microcolonies. The diameters of the clear zones were measured and expressed in "units" (10 units=1 mm) as. described previously.

[2] = test system: E. coli ML-35; test: radial diffusion assay in agarose gels; format: cell-based; conditions: for minimal microbicidal concentration: E. coli, Table 2; for inhibitory activity (FIG. 4a): E. coli ML-35
Procedure: as §1, §2

[3] = test system: L. monocytogenes, Strain EGD; test: radial diffusion assay in agarose gels; format: cell-based; conditions: for minimal microbicidal concentration: Table 2
Procedure: as §1, §2

[4] = test system: lipid polysaccharide (LPS) of the Gram-negative bacterium E. coli strain 0.55B5; test: Limulus amebocyte lysate (LAL) test for endotoxin binding; format: biochemical; design: key to LAL gel formation: ++ signifies a solid gel (no inhibition); + indicates increased viscosity without solid gel formation (partial inhibition); 0 indicates that gelation was absent (complete inhibition); conditions: for concentration giving complete inhibition of LAL gelation / LAL gel formation: LPS 0.05 endotoxin unit/ml; for LAL gel formation: Table 3; for concentration giving complete inhibition of LAL gelation, molar: converted from μg/ml
Procedure: The prophenins of the invention were tested for their ability to bind the lipid polysaccharide (LPS) of the Gram-negative bacterium E. coli strain 0.55B5. The assay was the Limulus amebocyte lysate (LAL) test for endotoxins conducted in the presence and absence of the test compounds. The test was conducted using the procedure described in Sigma Technical Bulletin No. 210 as revised in December 1992 and published by Sigma Chemical Company, St. Louis, Mo.
The LAL test is based on the ability of LPS to effect gelation in the commercial reagent E-TOXATE ™ which is prepared from the lysate of circulating amebocytes of the Horseshoe Crab Limulus polyphemus. As described in the technical bulletin, when exposed to minute quantities of LPS, the lysate increases in opacity as well as viscosity and may gel or clot depending on the concentration of endotoxin. The technical bulletin goes on to speculate that the mechanism appears analogous to the clotting of mammalian blood and involves the steps of activation of a trypsin-like preclotting enzymes by the LPS in the presence of calcium ion, followed by enzymic modifications of a "coagulogen" by proteolysis to produce a clottable protein. These steps are believed tied to the biologically active or "pyrogenic" portion of the molecule. It has been shown previously that detoxified LPS (or endotoxin) gives a negative LAL test.
Polymyxin B is a cyclic 1.2 kD acylated […] obtained from Bacillus polymyxa. Polymyxin B was used as a positive control since it is known to inhibit LPS-induced Limulus hemocyte lysate clotting.
In the assay, the amounts of prophenin-1 and polymyxin B (78% free polymyxin, Sigma) were preincubated in a final volume of 0.2 ml and the test mixtures contained LPS at a final concentration of 0.05 endotoxin unit/ml and E-TOXATE™ at the same concentration. The test compounds were incubated together with the LPS for 15 minutes before the E-TOXATE™ was added to a final volume (after E-TOXATE™ addition) of 0.2 ml. The tubes were then incubated for 60 minutes at 37° C. and examined for the formation of a gel.

Molecule	inhibitory activity (FIG. 4c) [1]	minimal microbicidal concentration [1] [µg/mL]	minimal microbicidal concentration [2] [µg/mL]	minimal microbicidal concentration [3] [µg/mL]	inhibitory activity (FIG. 4a) [2]	concentration giving complete inhibition of LAL gelation [4] [µg/mL]	LAL gel formation ([4]; peptide 0.16 μg/ml)	LAL gel formation ([4]; peptide 0.31 μg/ml)	LAL gel formation ([4]; peptide 0.63 μg/ml)	LAL gel formation ([4]; peptide 1.25 μg/ml)	LAL gel formation ([4]; peptide 2.5 μg/ml)	LAL gel formation ([4]; peptide 5.0 μg/ml)	LAL gel formation ([4]; peptide 10.0 μg/ml)	concentration giving complete inhibition of LAL gelation, molar [4]	specificity for Gram-negative bacteria ([2]; from Table 2, E. coli versus L. monocytogenes and C. albicans)	concentrations at which some activity was shown (FIG. 4b) [3]	inhibitory activity (FIG. 4b) ([3]; versus the other three antibiotic peptides)	effective concentration in inhibiting LPS ([4]; intact molecule) [nM]
HNP-1: human defensin (HNP-1), used as control	substantially noninhibitory	–	–	–	–	–	–	–	–	–	–	–	–	–	–	–	–	–
HNP-2: control peptide as headed in Table 2; the text names human defensin HNP-1 (CYCRIPACIAGERRYGTCIYQGRLWAFCC; ends and bridges not checked; cysteine pairing not given here; UniProt P59665 66-94, looked up)	–	> 150	80.0	12.0	–	–	–	–	–	–	–	–	–	–	–	–	–	–
PG-3: protegrin-3 (PG3), used as control (RGGGLCYCRRRFCVCVGR; ends and bridges not checked; cysteine pairing not given here; UniProt P32196 131-148, looked up)	successful antifungals	6.9	8.6	9.0	more inhibitory than HNP-1	–	–	–	–	–	–	–	–	–	–	–	–	–
Polymyxin B	–	–	–	–	–	5	++	++	++	++	+	0	0	≈ 4.2 μM	–	–	–	–
B1	substantially noninhibitory	> 150	15.2	122.2	comparable in inhibitory activity to PG3 and NP1	0.625	++	++	0	0	0	0	–	≈ 72 nM	highly specific for Gram-negative bacteria	above 100 μg/ml	substantially less inhibitory	35 to 70
